Read-outs that look alike come from different tables or passages of the source.

The test system of data set [1] is Del19/T790M/C797S EGFR. Put plainly: EGFR degradation HTRF assay in H1975-clone #28 (DTC) cells. The data set is classed as cell-based. To be noted: H1975 # 28 DTC (Del19/T790M/C797S), 16h treatment; for DC50: HTRF; for Dmax (%): maximum percentage of degradation. The method in brief: (§1)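 Engineered H1975 lines (exogenous mutant EGFR, endogenous copies knocked out, single clones sequence-verified); 16 h compound, 37 °C/5% CO2, 0.2% DMSO; top 10 uM, 5-fold, 8 pts; lysis 1 h RT, HTRF antibodies overnight RT; 4-parameter logistic fit → DC50.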

Data set [2] concerns the target T1, L858R/T790M/C797S EGFR (Homo sapiens, UniProt P00533, C797S/L858R/T790M).
T1 construct: expressed in transfected cells; host or cells: H1975 clone #25 (lentiviral over-expression, endogenous EGFR knocked out by sgRNA)
Put plainly: EGFR degradation HTRF assay in H1975-clone #25 (LTC) cells. The data set is classed as cell-based. To be noted: 16h treatment; for DC50: H1975 # 25-LTC (L858R/T790M/C797S), HTRF; for Dmax: NCI-H1975, H1975 # 25-LTC (L858R/T790M/C797S), maximum percentage of degradation. The method in brief: as §1
For orientation: TR-FRET usually uses a lanthanide donor and a delayed reading to cut background.

For data set [3], the system named is Del19/C797S EGFR. Put plainly: EGFR degradation HTRF assay in H1975-clone #23 (DC) cells. The data set is classed as cell-based. To be noted: H1975 #23 DC (Del19/C797S), 16h treatment; for DC50: HTRF; for Dmax (%): maximum percentage of degradation. From the text:
(§2) H1975-clone #28(Del19/T790M/C797S, or abbr: DTC), H1975-clone #23(Del19/C797S, or abbr: DC), H1975-clone #25(L858R/T790M/C797S, or abbr: LTC) and H1975-clone #8 (L858R/C797S, or abbr: LC). EGFR-Del19:T790M/C797S, EGFR-Del19/C797S, EGFR-L858R/T790M/C797S and EGFR-L858R/C797S were stably expressed in H1975 cell lines by lentivirus-mediated over-expression, respectively. The EGFR over-expressed cells then underwent knockout, in which the EGFR targeting sgRNA was designed to only target the endogenous EGFR copies and preserve the exogenous EGFR copies. Followed by the knockout, the edited H1975 cells were seeded in 96 well plates at the concentration of […], cultured for about 2 weeks to allow single clones formation. The formed clones were screened by DNA sequencing and whole exon sequencing analysis for the desired edition. H1975-clone #28, H1975-clone #23, H1975-clone #25 and H1975-clone #8 were finally confirmed as homozygous Del19/T790M/C797S EGFR, Dell9/C797S EGFR, L858R/T790M/C797S EGFR and L858R/C797S EGFR clones, respectively.
(§3) H1975-#25, H1975-#28, H1975-#23 and H1975-#8 cells are treated with compounds diluted in 0.2% DMSO cell culture medium on day 2, incubate for 16h, 37° C., 5% CO2. the final concentration of compounds in all assay is start with 10 uM, 5-fold dilution, total 8 doses were included.
(§4) After 16h treatment, add HTRF lysis buffer to each well; seal the plate and incubate 1 hour at room temperature on a plate shaker; Once the cells are lysed, 16 μL of cell lysate are transferred to a PE 384-well HTRF detection plate; 4 μL of pre-mixed HTRF antibodies are added to each well; Cover the plate with a plate sealer, spin 1000 rpm for 1 min, Incubate overnight at room temperature; Read on BMG PheraStar with HTRF protocol (337 nm-665 nm-620 nm).
(§5) The IC50 (DC50) value of a compound can be obtained by fitting the following equation
(§6) Y=Bottom+(TOP−Bottom)/(1+((IC50/X)^hillslope))
(§7) Wherein, X and Y are known values, and IC50, Hillslope, Top and Bottom are the parameters obtained by fitting with software. Y is the inhibition percentage (calculated from the equation), X is the concentration of the compound: IC50 is the concentration of the compound when the 50% inhibition is reached. The smaller the IC50 value is, the stronger the inhibitory ability of the compound is. Vice versa, the higher the IC50 value is, the weaker the ability the inhibitory ability of the compound is: Hillslope represents the slope of the fitted curve, generally around 1*; Bottom represents the minimum value of the curve obtained by data fitting, which is generally 0%±20%; Top represents the maximum value of the curve obtained by data fitting, which is generally 100%±20%. The experimental data were fitted by calculating and analyzing with Dotmatics data analysis software.

In data set [4] the target is T2, L858R/C797S EGFR (Homo sapiens, UniProt P00533, C797S/L858R).
T2 construct: expressed in transfected cells; host or cells: H1975 clone #8 (lentiviral over-expression, endogenous EGFR knocked out by sgRNA)
T2 sequence (P00533 25-1210 C797S/L858R): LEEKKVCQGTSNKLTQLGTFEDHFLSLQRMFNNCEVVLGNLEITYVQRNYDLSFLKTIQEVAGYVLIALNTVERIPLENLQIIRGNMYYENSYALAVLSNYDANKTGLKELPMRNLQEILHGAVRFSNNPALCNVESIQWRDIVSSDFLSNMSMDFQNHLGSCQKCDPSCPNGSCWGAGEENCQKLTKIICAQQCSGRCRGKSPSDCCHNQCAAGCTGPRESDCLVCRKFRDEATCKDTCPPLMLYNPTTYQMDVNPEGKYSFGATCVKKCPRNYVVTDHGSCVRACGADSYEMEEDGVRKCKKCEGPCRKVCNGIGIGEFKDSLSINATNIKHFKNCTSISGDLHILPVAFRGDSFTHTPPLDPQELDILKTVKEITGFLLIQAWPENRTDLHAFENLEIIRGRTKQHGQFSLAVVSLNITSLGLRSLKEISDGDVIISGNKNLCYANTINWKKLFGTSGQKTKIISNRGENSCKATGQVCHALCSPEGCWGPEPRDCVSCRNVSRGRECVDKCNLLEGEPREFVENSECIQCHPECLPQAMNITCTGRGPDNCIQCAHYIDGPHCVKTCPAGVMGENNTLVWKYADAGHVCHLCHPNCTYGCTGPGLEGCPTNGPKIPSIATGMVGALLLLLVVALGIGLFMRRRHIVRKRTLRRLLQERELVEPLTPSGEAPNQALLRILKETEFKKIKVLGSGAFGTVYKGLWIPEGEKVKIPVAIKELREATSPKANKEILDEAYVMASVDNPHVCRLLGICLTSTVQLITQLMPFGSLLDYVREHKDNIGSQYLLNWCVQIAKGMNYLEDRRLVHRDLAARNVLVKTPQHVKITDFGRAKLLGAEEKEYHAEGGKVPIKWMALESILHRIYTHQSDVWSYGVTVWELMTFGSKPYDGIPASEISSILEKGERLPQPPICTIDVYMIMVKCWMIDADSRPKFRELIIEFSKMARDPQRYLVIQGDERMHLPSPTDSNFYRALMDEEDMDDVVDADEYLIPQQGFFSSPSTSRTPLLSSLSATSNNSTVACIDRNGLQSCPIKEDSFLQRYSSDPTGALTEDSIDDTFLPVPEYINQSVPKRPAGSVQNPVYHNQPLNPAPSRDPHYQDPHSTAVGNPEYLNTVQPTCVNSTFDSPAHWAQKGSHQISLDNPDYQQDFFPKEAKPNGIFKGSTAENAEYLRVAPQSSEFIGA
Kind of data set: EGFR degradation HTRF assay in H1975-clone #8 (LC) cells. To be noted: H1975 #8 LC (L858R/C797S), 16h treatment; for DC50: HTRF; for Dmax: NCI-H1975, maximum percentage of degradation. Type of data set: cell-based.
Text: as §2, §3, §4, §5, §6, §7

The conditions of data set [5]: amide bond, 15-membered ring.

T1 sequence (P00533 25-1210 T790M/C797S/L858R): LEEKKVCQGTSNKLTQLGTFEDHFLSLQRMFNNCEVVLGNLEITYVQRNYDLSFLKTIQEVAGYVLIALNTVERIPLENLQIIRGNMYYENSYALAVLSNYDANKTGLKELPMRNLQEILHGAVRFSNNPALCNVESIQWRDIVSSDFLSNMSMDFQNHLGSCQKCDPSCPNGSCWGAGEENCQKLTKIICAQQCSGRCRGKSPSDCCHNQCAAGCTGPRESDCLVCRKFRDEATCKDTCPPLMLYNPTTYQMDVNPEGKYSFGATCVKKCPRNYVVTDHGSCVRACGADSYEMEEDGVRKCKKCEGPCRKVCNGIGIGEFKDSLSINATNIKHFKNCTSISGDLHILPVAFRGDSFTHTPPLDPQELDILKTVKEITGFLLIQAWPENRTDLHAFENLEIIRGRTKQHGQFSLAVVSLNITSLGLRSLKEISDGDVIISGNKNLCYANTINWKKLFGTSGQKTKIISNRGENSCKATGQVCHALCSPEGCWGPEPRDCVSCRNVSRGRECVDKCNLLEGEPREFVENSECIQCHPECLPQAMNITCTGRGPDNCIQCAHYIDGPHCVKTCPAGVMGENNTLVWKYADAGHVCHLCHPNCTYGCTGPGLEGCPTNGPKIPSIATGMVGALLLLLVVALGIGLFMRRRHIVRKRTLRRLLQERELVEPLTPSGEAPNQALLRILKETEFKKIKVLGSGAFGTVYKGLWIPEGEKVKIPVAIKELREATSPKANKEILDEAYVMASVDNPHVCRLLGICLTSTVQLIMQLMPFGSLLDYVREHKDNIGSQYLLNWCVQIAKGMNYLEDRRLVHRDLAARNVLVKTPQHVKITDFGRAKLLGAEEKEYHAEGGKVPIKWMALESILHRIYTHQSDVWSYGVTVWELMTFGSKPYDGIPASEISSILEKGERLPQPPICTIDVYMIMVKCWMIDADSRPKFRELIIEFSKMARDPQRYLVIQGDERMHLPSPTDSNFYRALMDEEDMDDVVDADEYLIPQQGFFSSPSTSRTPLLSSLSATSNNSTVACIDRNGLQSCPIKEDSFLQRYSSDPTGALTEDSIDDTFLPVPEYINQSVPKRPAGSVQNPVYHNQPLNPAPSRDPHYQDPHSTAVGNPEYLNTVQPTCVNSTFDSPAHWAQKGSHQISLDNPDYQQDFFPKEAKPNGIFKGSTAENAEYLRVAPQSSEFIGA

What is called DC50 is the concentration at which degradation of the target reaches its halfway point. Lower therefore signals degradation at low concentration. One may read the Dmax as the largest share of the target that was removed. A high value points to a fuller loss of target. With `Cc1cc2cc(n1)-c1cnn(C)c1OCCC[C@@H](C)CN1/C(=N/C2=O)Nc2ccc(CN3CCC(N4CCN(C(=O)[C@@H]5CCN(c6cc(F)c([C@H]7CCC(=O)NC7=O)c(F)c6)C5)CC4)CC3)cc21` [Example 6, (R)-3-(2,6-difluoro-4-((R)-3-(4-(1-(((R,E)-1^1,2^6,7-trimethyl-3-oxo-5^2,5^3-dihydro-1^1H,5^1H-11-oxa-4-aza-5(2,1)-benzo[d]imidazola-2(2,4)-pyridina-1(4,5)-pyrazolacycloundecaphane-5^6-yl)methyl)piperidin-4-yl)piperazine-1-carbonyl)pyrrolidin-1-yl)phenyl)piperidine-2,6-dione], the half-maximal degradation concentration (DC50) in data set [1] was 0.8 nM; in data set [2] it was 1.1 nM; in data set [3], 1.7 nM; in data set [4] it was 3 nM. Moreover, the “Dmax (%)” value came to 85.7% in data set [1] and 78.2% in data set [3]. Further, the maximal degradation (Dmax) in data set [2] came out at 89.9%; in data set [4], 63.1%.

Consider `Cc1cc2cc(n1)-c1cnn(C)c1OCCC[C@@H](C)CN1/C(=N/C2=O)Nc2ccc(CN3CCC4(CC3)CCN(C(=O)[C@@H]3CCN(c5cc(F)c([C@H]6CCC(=O)NC6=O)c(F)c5)C3)CC4)cc21` [Example 9, (R)-3-(2,6-difluoro-4-((R)-3-(9-(((R,E)-1^1,2^6,7-trimethyl-3-oxo-5^2,5^3-dihydro-1^1H,5^1H-11-oxa-4-aza-5(2,1)-benzo[d]imidazola-2(2,4)-pyridina-1(4,5)-pyrazolacycloundecaphane-5^6-yl)methyl)-3,9-diazaspiro[5.5]undecane-3-carbonyl)pyrrolidin-1-yl)phenyl)piperidine-2,6-dione], for which the half-maximal degradation concentration (DC50) in data set [1] was 1.7 nM; in data set [2] it was 0.8 nM; in data set [3], 1 nM; in data set [4] it was 3.2 nM. Moreover, the “Dmax (%)” value in data set [1] worked out at 76.4%; in data set [3], 82.6%. The Dmax in data set [2] was 90.1%; in data set [4] it was 64.6%.

`Cc1cc2cc(n1)-c1cnn(C)c1OCCC[C@@H](C)Cn1c(nc3ccc(Br)cc31)NC2=O` had a ring closure, isolated yield in data set [5] (from Cc1cc(C(=O)O)cc(-c2cnn(C)c2OCCC[C@@H](C)Cn2c(N)nc3ccc(Br)cc32)n1, TBTU/TEA, DCM, 117.0 mM, 20.0 °C) of 82%.

Consider `Cc1cc2cc(n1)-c1cnn(C)c1OCCC[C@@H](C)CN1/C(=N/C2=O)Nc2ccc(CN3CCN(C(=O)[C@@H]4CCN(c5cc(F)c([C@H]6CCC(=O)NC6=O)c(F)c5)C4)CC3)cc21` [Example 5, (R)-3-(2,6-difluoro-4-((R)-3-(4-(((R,E)-1^1,2^6,7-trimethyl-3-oxo-5^2,5^3-dihydro-1^1H,5^1H-11-oxa-4-aza-5(2,1)-benzo[d]imidazola-2(2,4)-pyridina-1(4,5)-pyrazolacycloundecaphane-5^6-yl)methyl)piperazine-1-carbonyl)pyrrolidin-1-yl)phenyl)piperidine-2,6-dione], for which the 50% degradation concentration (DC50) in data set [1] came out at 1.5 nM; in data set [2] it was 2 nM; in data set [3] it was 0.6 nM. For the same compound, the entries for the “Dmax (%)” value in data set [1] and in data set [3] were 72.0% and 67.6%, respectively. The Dmax in data set [2] amounted to 83%.

`COC(=O)c1cc(C)nc(-c2cnn(C)c2OCC[C@H]2C[C@@H]2Cn2c(=N)[nH]c3ccc(Br)cc32)c1`: the ring closure, isolated yield in data set [5] (the molecule shown is the open-chain precursor, LiHMDS, DMF/THF, 56.7 mM, 25.0 °C) amounted to 49.6%.

Compound `COC(=O)c1cc(C)nc(-c2cnn(C)c2OCCC[C@@H](C)Cn2c(N)nc3ccc(N4CCC5(CC4=O)OCCO5)cc32)c1` gave a ring closure, isolated yield in data set [5] (the molecule shown is the open-chain precursor, LiHMDS, DMF/THF, 32.0 mM, 0.0 °C) of 54.5%.

For “tert-butyl (R,E)-3-oxo-4-(1^1,2^6,7-trimethyl-3-oxo-5^2,5^3-dihydro-1^1H,5^1H-11-oxa-4-aza-5(2,1)-benzo[d]imidazola-2(2,4)-pyridina-1(4,5)-pyrazolacycloundecaphane-5′-yl)piperazine-1-carboxylate”, the ring closure, isolated yield in data set [5] (HATU/DIEA, DCM, 155.0 mM, 25.0 °C) is 51.4%.
